Read-outs that look alike come from different tables or passages of the source.
How the values were obtained:
OVCAR8 cells = assay: Cell proliferation PAD assay, OVCAR8; assay type: cell-based; details: Homo sapiens, OVCAR-8, 6pt, 48 hours
Experimental: (§1) Cell lines used are available from American Type Culture Collection (ATCC), for example, cell cultures containing A549 (ATCC# CCL-185), HeLa (ATCC# CCL-2), HCT116 ATTC# CCL-247), and H1299 (ATCC# CRL-5803) cells were maintained in T175 flasks following the ATCC recommended media and handling procedures. […] A 20,000 cells/ml solution was made for plating. Cells were plated in black Packard 96 well plates by placing 100 μl per well (2,000 cells per well). […] The definitions of the cell types used are as follows: A549 is lung carcinoma; HI 299 is non-small cell lung carcinoma; HI 155 is non-small cell lung carcinoma; AsPC-1 is pancreatic adenocarcinoma; Caov-3 is ovarian adenocarcinoma; COLO 205 is colorectal adenocarcinoma; DLD-1 colorectal adenocarcinoma; HCT116 is colorectal carcinoma; DU 145 is prostate carcinoma; ES-2 is ovarian clear cell carcinoma; H460 is large cell lung carcinoma; HELA is cervical adenocarcinoma; MIA PaCa-2 is pancreatice carcinoma; OVCAR-3 is ovarian adenocarcinoma; OVCAR8 is ovarian carcinoma; PC3 is prostate adenocarcinoma; SK-OV-3 is ovarian adenocarcinoma; SU86.86 is pancreatic carcinoma; TOV-21G is avarian clear cell carcinoma; U2OS is bone osteosarcoma; is ASPC-I is pancreatic adenocarcinoma; BXPC-3 is pabcreatic adenocarcinoma; HL60 is promyeloblast promyelocytic leukemia; K562 is bone marrow chronic myelogenous leukemia; L1210 is mouse lymphocytic leukemia; MOLT3 is T lymphoblast acute lymphoblastic leukemia; MOLT4 is T lymphoblast acute lymphoblastic leukemia; SW620 is colorectal adenocarcinoma; THP-1 is monocyte acute monocytic leukemia; U937 is histiocytic lymphoma; and UACC-257 is melanoma.
(§2) Compounds and additional media were added 24 hours after cell plating. […] All compound testing was done in duplicate using 6.3 fold dilutions starting with 10 mM. […] Taxol and at least one additional control were run on all plates. Three microliters of the compound master plate were added to deep well blocks containing 750 μl of RPMI media. One hundred microliters were transferred from the compound/media deep well blocks to the plated cells resulting in a 500 fold dilution of the compounds. Cells were grown at 37° C., 5% CO2 for 48 hours.
(§3) Cells to be analyzed by photography were fixed and stained. One hundred microliters of media were removed and 100 μl of 9.3% formamide was added to each well. Plates were left on the benchtop for 45 minutes. A staining solution containing 1.55 μl of 1 mg/ml DAPI added to 18.75 ml PBS was warmed for 15 minutes at 37° C. The cells were aspirated prior to washing with 100 μl of PBS. Seventy microliters of PBS were aspirated and 170 μl of the DAPI solution were added to each well of fixed cells. Plates were left at room temperature for one hour then aspirated and washed twice with 100 μl of PBS. The stained cells were left at 4° C. for a minimum of 16 hours before photographic analysis with Array Scan II (Cellomics). Analysis of the photographic images to determine numbers of live cells (proliferation), apoptotic cells and dead cells, were according to the methods described in U.S. Utility patent application Ser. No. 10/652,440, which incorporated herein in its entirety.

H1299 cells = assay: Cell proliferation PAD assay, H1299; assay type: cell-based; details: Homo sapiens, 48 hours
How it was run: (§4)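 Proliferation was scored by DAPI imaging of fixed cells, counting live, apoptotic and dead cells, after 48 h compound exposure at 37 °C, 5% CO2. Compound, dosed in duplicate 24 h post-plating (2,000 cells/well), came from 6.3-fold dilutions of a 10 mM stock diluted 500-fold.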

TRAF6/Uev1A/Ubc13 = target: T1, TRAF6/Uev1A/Ubc13 (Homo sapiens, UniProt Q9Y4K3); assay: TRAF6/Uev1A/Ubc13 plate-based ubiquitin ligase assay; assay type: biochemical
T1 sequence (Q9Y4K3 1-522): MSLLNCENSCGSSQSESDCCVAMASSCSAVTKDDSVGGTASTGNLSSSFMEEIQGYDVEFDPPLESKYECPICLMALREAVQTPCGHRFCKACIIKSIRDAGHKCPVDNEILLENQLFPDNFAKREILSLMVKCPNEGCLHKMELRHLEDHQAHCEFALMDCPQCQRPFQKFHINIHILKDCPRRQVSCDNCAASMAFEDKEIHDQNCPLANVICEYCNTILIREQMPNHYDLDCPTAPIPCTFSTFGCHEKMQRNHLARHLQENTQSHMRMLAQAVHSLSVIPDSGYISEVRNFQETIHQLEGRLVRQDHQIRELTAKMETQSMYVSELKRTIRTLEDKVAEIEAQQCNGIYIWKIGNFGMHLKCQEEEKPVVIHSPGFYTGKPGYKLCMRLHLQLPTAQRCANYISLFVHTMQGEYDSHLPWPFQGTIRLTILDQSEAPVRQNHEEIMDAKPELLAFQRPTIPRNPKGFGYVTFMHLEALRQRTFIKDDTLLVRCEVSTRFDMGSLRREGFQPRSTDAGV
How it was run: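 Ligase activity was read as luminescence from anti-Flag/HRP detection of Flag-ubiquitin bound to casein-blocked Ni-plates alongside His-ubiquitin after a 1 h room-temperature reaction. Buffer: 62.5 mM Tris pH 7.5, 6.25 mM MgCl2, 1.0 mM DTT, 2 μM ATP; E1, Uev1a/Ubc13 and TRAF6 added last to start. IC50s derived across compound concentrations.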

UACC-257 cells = assay: Cell proliferation PAD assay, UACC-257; assay type: cell-based; details: Homo sapiens, UACC257 cells, 6pt, 48 hours
Experimental: as §1, §2, §3

A549 cells = assay: Cell proliferation PAD assay, A549; assay type: cell-based; details: Homo sapiens, 48 hours
How it was run: as §4

APC11/APC2 = APC11/APC2 (Homo sapiens, UniProt Q9NYG5+Q9UJX6); assay: APC-11/APC-2 ligase assay (APC auto ubiquitination); assay type: biochemical; details: APC assay
How it was run: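 His-tagged APC was captured on nickel plates with human E1 (5 ng/well), UbcH5c (20 ng/well), APC (100 ng/well) and Flag-ubiquitin (100 ng/well) in a Tris pH 7.6 reaction buffer containing 2.5 mM ATP, for 1 hour at room temperature. Read-out was anti-Flag/HRP chemiluminescence. IC50 was set against a DMSO control, typically from 6 or 8 concentrations.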

ROC1/CUL1 = target: T2, ROC1/CUL1 (Homo sapiens, UniProt P62877+Q13616); assay: ROC1/CUL1 ubiquitin ligase assay (SCF assay); assay type: biochemical
T2 construct: made in house
Experimental: Inhibition of ubiquitin ligase activity of E1+E2+E3 was measured using the protocol as described in WO 01/75145 with E3 as the ROC1/CUL1, ROC1/CUL2, or ROC2/CUL5 complex.
The wells of nickel-substrate 96-well plates (Pierce Chemical) are blocked with 100 μl of 1 casein/phosphate buffered saline (PBS) for 1 hour at room temperature, then washed with 200 μl of PBST (0.1% Tween-20 in PBS) 3 times. To each well is added the following Flag-ubiquitin (see above) reaction solution: 62.5 mM Tris pH 7.5, 6.25 mm MgCl2, 0.75 mM DTT, 2.5 mM ATP, 2.5 mM NaF1, 2.5 nM Okadaic acid, 100 ng Flag-ubiquitin (made as described above).
The buffer solution is brought to a final volume of 80 μl with Milipore-filtered water, followed by the addition of 10 μl DMSO.
To the above solution is then added 10 μl of ubiquitination enzymes in 20 mM Tris buffer, pH 7.5, and 5% glycerol. E2-Ubch5c and E3-His ROC1/Cul1, ROC1/CUL2, and ROC2/CUL5 are made as described in WO 01/75145. E1 is obtained commercially (Affiniti Research Products, Exeter, U. K.). The following amounts of each enzyme are used for these assays: 5 ng/well of E1; […] E2; and 100 ng/well His-E3. Varying amounts of compounds according to the invention are added and the reaction allowed to proceed at room temperature for 1 hour.
Following the ubiquitination reaction, the wells are washed with 200 μl of PBST 3 times. For measurement of the enzyme-bound ubiquitin, 100 gel of Mouse anti-Flag (1:10,000) and anti-Mouse Ig-HRP (1:15, 000) in PBST are added to each well and allowed to incubate at room temperature for 1 hour. The wells are then washed with 200 μl of PBST 3 times, followed by the addition of 100 μl of luminol substrate (1/5 dilution). Luminescence for each well is then measured using a fluorimeter.
Table 2 below illustrates the inhibitory activity of the compounds of the invention determined by the TRAF6/Uev1A/Ubc13 assay as well as in the ICAM, APC and the ROC1/CUL1 Ubiquitin Ligase Assay (SCF Assay). The IC50 values were determined using a various concentrations of the compounds.

[1] = tested on: ICAM-1 expression in A549 cells; assay: ICAM assay (IL-1 induced ICAM-1/CD54 expression in A549 cells); assay type: cell-based, human; details: Homo sapiens, A549, ICAM assay
How it was run: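 Luminescent immunostaining (anti-CD54, then anti-mouse IgG, 1 h) quantifies ICAM-1 on A549 cells induced 4 h at 37° C by IL-1 (4 μl of 25 ng/ml added). Compound is added 1 h before the cytokine to cells plated overnight at 10,000 per well.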

[2] = NCI-H1299, 3pt, read-out: H1299 3pt
[3] = NCI-H1299, 6pt, read-out: H1299 6pt

T2 sequence (P62877 whole entry): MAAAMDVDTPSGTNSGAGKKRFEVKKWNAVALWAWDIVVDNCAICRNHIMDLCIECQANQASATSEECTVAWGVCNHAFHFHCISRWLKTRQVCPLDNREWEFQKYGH
T2 sequence (Q13616 whole entry): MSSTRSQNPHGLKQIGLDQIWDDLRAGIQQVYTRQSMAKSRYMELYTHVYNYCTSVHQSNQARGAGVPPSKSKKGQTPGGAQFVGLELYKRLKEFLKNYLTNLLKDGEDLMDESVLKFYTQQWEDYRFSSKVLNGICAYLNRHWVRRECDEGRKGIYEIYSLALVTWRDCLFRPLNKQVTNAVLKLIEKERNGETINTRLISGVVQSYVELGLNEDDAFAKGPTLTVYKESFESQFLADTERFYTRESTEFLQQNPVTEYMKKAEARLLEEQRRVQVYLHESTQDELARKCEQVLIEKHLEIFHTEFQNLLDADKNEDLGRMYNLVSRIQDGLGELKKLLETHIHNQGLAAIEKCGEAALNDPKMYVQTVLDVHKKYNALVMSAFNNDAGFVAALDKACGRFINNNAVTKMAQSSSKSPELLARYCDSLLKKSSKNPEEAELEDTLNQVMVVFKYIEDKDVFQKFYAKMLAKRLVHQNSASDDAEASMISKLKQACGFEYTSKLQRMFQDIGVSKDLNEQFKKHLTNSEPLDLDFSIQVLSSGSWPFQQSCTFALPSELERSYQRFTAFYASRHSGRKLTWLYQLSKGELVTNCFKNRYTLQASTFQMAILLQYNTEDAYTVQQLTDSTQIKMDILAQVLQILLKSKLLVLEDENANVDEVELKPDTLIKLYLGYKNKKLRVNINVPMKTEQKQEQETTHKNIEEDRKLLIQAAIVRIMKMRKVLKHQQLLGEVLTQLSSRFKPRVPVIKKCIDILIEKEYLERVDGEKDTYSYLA
APC11/APC2, sequence (Q9NYG5 whole entry): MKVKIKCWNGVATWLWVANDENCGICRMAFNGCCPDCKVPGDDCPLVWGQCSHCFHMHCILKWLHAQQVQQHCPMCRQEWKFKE
APC11/APC2, sequence (Q9UJX6 whole entry): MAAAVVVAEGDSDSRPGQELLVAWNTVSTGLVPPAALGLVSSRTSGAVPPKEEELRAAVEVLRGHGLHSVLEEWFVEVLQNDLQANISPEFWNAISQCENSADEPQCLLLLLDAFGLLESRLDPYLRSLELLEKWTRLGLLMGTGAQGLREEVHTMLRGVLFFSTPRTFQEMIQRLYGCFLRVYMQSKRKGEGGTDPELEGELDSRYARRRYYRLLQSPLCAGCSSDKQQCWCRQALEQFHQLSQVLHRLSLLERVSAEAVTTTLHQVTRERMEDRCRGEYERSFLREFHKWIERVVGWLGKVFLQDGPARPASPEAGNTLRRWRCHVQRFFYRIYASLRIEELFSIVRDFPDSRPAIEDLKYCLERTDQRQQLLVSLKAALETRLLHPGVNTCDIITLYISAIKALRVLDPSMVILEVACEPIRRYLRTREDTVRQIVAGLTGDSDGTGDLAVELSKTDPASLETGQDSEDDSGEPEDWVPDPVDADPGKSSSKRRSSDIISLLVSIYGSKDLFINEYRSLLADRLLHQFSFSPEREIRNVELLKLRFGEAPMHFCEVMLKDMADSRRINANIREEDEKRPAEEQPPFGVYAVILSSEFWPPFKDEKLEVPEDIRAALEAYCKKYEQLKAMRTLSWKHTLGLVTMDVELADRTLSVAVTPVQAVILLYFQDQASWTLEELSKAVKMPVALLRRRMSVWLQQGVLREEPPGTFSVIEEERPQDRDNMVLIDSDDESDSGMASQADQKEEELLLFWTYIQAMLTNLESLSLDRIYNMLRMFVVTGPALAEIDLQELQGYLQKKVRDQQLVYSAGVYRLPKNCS

| SMILES | IC50 (OVCAR8 cells) | IC50 (H1299 cells; [2]) | IC50 (H1299 cells; [3]) | IC50 (TRAF6/Uev1A/Ubc13) | IC50 (A549 cells; 3pt, read-out: A549 3pt) | IC50 (A549 cells; 6pt, read-out: A549 6pt) | IC50 (APC11/APC2) | IC50 (ROC1/CUL1) | IC50 [1] | IC50 (UACC-257 cells) |
| --- | --- | --- | --- | --- | --- | --- | --- | --- | --- | --- |
| COC(=O)c1ccc(Nc2ccc(S(=O)(=O)Nc3ccc(C(=O)OC)cc3)c3nonc23)cc1 [compound 9, Methyl 4-{[(7-{[4-(methoxycarbonyl)phenyl]amino}-2,1,3-benzoxadiazol-4-yl)sulfonyl]amino}benzoate] | ≥ 20 µM | ≥ 20 µM | ≥ 20 µM | ≥ 20 µM | ≥ 20 µM | 1 to 20 µM | – | – | – | ≥ 20 µM |
| O=S(=O)(Nc1ccncc1)c1ccc2nonc2c1 [compound 26, N-pyridin-4-yl-2,1,3-benzoxadiazole-5-sulfonamide] | ≥ 20 µM | ≥ 20 µM | – | – | ≥ 20 µM | – | – | – | – | ≥ 20 µM |
| O=C(CN1CCN(c2ccc([N+](=O)[O-])c3nonc23)CC1)N1CCOCC1 [compound 107, 4-[4-(2-morpholin-4-yl-2-oxoethyl)piperazin-1-yl]-7-nitro-2,1,3-benzoxadiazole] | ≥ 20 µM | ≥ 20 µM | ≥ 20 µM | ≥ 20 µM | ≥ 20 µM | ≥ 20 µM | – | – | – | ≥ 20 µM |
| CN1CCN(S(=O)(=O)c2ccc(Sc3ccc4ccccc4n3)c3nonc23)CC1 [compound 268, 2-({7-[(4-methylpiperazin-1-yl)sulfonyl]-2,1,3-benzoxadiazol-4-yl}thio)quinoline] | – | – | – | ≥ 20 µM | – | – | – | ≥ 20 µM | ≥ 20 µM | – |
| COc1ccc(Cl)cc1NS(=O)(=O)c1ccc(Cl)c2nonc12 [compound 269, 7-chloro-N-(5-chloro-2-methoxyphenyl)-2,1,3-benzoxadiazole-4-sulfonamide] | – | – | – | 1 to 20 µM | – | – | – | ≥ 20 µM | ≥ 20 µM | – |
| O=C(Nc1cccc2nonc12)C1CN(c2ncccc2Cl)C1 [compound 486, N-(2,1,3-benzoxadiazol-4-yl)-1-(3-chloropyridin-2-yl) azetidine-3-carboxamide] | – | – | – | 1 to 20 µM | – | – | 1 to 20 µM | 1 to 20 µM | – | – |

Further lines, with some results ahead:

| IC50 (OVCAR8 cells) | IC50 (H1299 cells; [2]) | IC50 (H1299 cells; [3]) | IC50 (TRAF6/Uev1A/Ubc13) | IC50 (A549 cells; 3pt, read-out: A549 3pt) | IC50 (A549 cells; 6pt, read-out: A549 6pt) | IC50 (APC11/APC2) | IC50 (ROC1/CUL1) | IC50 [1] | SMILES | IC50 (UACC-257 cells) |
| --- | --- | --- | --- | --- | --- | --- | --- | --- | --- | --- |
| ≥ 20 µM | ≥ 20 µM | – | 1 to 20 µM | ≥ 20 µM | – | – | – | – | COc1ccccc1NS(=O)(=O)c1cccc2nonc12 [compound 11, N-(2-methoxyphenyl)-2,1,3-benzoxadiazole-4-sulfonamide] | ≥ 20 µM |
| 1 to 20 µM | 1 to 20 µM | 1 to 20 µM | 1 to 20 µM | 1 to 20 µM | 1 to 20 µM | – | – | – | O=[N+]([O-])c1cc(Cl)c(Oc2ccc(S(=O)(=O)Nc3cccc4nonc34)cc2Cl)c(Cl)c1 [compound 79, N-2,1,3-benzoxadiazol-4-yl-3-chloro-4-(2,6-dichloro-4-nitrophenoxy)benzenesulfonamide] | ≥ 20 µM |
| – | – | – | 1 to 20 µM | – | – | 1 to 20 µM | 1 to 20 µM | – | CC1CC(C)CN(c2ccc(S(=O)(=O)N3CC(C)CC(C)C3)c3nonc23)C1 (stereo not drawn) [compound 193, 4-(3,5-dimethylpiperidin-1-yl)-7-[(3,5-dimethylpiperidin-1-yl)sulfonyl]-2,1,3-benzoxadiazole] | – |
| – | – | – | 1 to 20 µM | – | – | – | ≥ 20 µM | ≥ 20 µM | O=[N+]([O-])c1ccc(Sc2ccc3ccccc3n2)c2nonc12 [compound 238, 2-[(7-nitro-2,1,3-benzoxadiazol-4-yl)thio]quinoline] | – |
